{"source": "patent US20060069132A1", "about": "“Azolecarboxamide herbicides” (priority 2004, published 2006)", "key": {"large crabgrass": {"test_system": "large crabgrass", "test": "Test B pre-/postemergence herbicide test", "assay_type": "in vivo, Digitaria sanguinalis", "settings": "for pest or weed control at 125 g/ha / pest or weed control at 500 g/ha: Digitaria sanguinalis", "procedure,_shortened": "(§1)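 Visual rating, 0 (no effect) to 100 (complete control), versus untreated controls after 13–15 d in greenhouse. Pre- and postemergence applications (postemergence plants 2–18 cm, 1–4 leaves); flooded paddy arm at 2-leaf stage. Compounds in non-phytotoxic solvent plus surfactant.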"}, "corn": {"test_system": "corn", "test": "Test B pre-/postemergence herbicide test", "assay_type": "in vivo, Zea mays", "settings": "for plant injury at 125 g/ha / plant injury at 500 g/ha / Corn plant response rating (crop injury, 0 = no effect, 100 = complete kill) at 500 g/ha: Zea mays", "procedure,_shortened": "as §1"}, "velvetleaf": {"test_system": "velvetleaf", "test": "Test A pre-/postemergence herbicide test", "assay_type": "in vivo, Abutilon theophrasti", "settings": "for pest or weed control at 500 g/ha / pest or weed control at 2000 g/ha: Abutilon theophrasti, 240 h", "procedure,_shortened": "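Sandy loam soil given preemergence directed spray; plants at 2 to 10 cm, one- to two-leaf stage, sprayed to runoff postemergence, compounds in non-phytotoxic solvent with surfactant. Injury rated visually versus untreated controls after about ten greenhouse days, 0 (no effect) to 100 (complete control); dash means not tested.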"}, "[1]": {"settings": "post-emergence, postemergence, 125 g ai/ha, visual rating, scale 0 (no effect) to 100 (complete control), read-out: Crabgrass, Large plant response rating"}, "[2]": {"settings": "pre-emergence, 125 g ai/ha, 0 = no effect, 100 = complete control, read-out: Crabgrass, Large plant response rating (0 to 100 scale)"}, "[3]": {"settings": "pre-emergence, 500 g ai/ha, visual rating, 0 = no effect, 100 = complete control, read-out: Plant response rating, Crabgrass, Large"}, "[4]": {"settings": "post-emergence, postemergence, 125 g ai/ha, visual rating, scale 0 (no effect) to 100 (complete control), read-out: Corn plant response rating"}, "[5]": {"settings": "pre-emergence, 125 g ai/ha, 0 = no effect, 100 = complete control, read-out: Corn plant response rating (0 to 100 scale)"}, "[6]": {"settings": "pre-emergence, 500 g ai/ha, visual rating, 0 = no effect, 100 = complete control"}, "[7]": {"settings": "125 g ai/ha, 0 = no effect, 100 = complete control, preemergence"}, "[8]": {"settings": "500 g ai/ha, visual rating, 0 = no effect, 100 = complete control, preemergence"}, "[9]": {"settings": "postemergence, 125 g ai/ha, visual rating, scale 0 (no effect) to 100 (complete control)"}, "[10]": {"settings": "postemergence, 500 g ai/ha, scale 0 to 100, 0 is no effect, 100 is complete control"}, "[11]": {"settings": "Postemergence, 500 g ai/ha, 0 to 100 scale, 0 no effect, 100 complete control"}, "[12]": {"settings": "Postemergence, 2000 g ai/ha, 0 to 100 scale, 0 no effect, 100 complete control"}, "[13]": {"settings": "Preemergence, 2000 g ai/ha, visual rating, 0 to 100 scale (0 no effect, 100 complete control)"}, "[14]": {"settings": "125 g ai/ha, 0 is no effect, 100 is complete control, preemergence"}, "[15]": {"settings": "Postemergence, 500 g ai/ha, scale 0 (no effect) to 100 (complete control)"}, "[16]": {"settings": "postemergence, 125 g ai/ha, scale 0 to 100"}, "[17]": {"settings": "post-emergence, Postemergence, 2000 g ai/ha, 0 to 100 scale, 0 no effect, 100 complete control, read-out: Plant response rating, Velvetleaf"}, "[18]": {"settings": "500 g ai/ha, visual rating 0-100, 0 no effect, 100 complete control, preemergence"}, "[19]": {"settings": "preemergence, 125 g ai/ha, 0 to 100 scale, 0 is no effect, 100 is complete control"}}, "note": "Where two headings read alike, the source gives them in different places."}
{"smiles": "CCn1nc(C(C)(C)C)cc1C(=O)Nc1ccc(F)c(C(=O)N(C)C)c1", "note": "[Compound 236, N-[3-[(dimethylamino)carbonyl]-4-fluorophenyl]-3-(1,1-dimethylethyl)-1-ethyl-1H-pyrazole-5-carboxamide]", "values": [{"measurement": "pest or weed control at 125 g/ha", "setting": "large crabgrass; [1]", "value": 0, "unit": "%"}, {"measurement": "pest or weed control at 500 g/ha", "setting": "large crabgrass; post-emergence, postemergence, 500 g ai/ha, visual rating, scale 0 (no effect) to 100 (complete control), read-out: Crabgrass, Large plant response rating", "value": 20, "unit": "%"}, {"measurement": "pest or weed control at 125 g/ha", "setting": "large crabgrass; [2]", "value": 30, "unit": "%"}, {"measurement": "pest or weed control at 500 g/ha", "setting": "large crabgrass; [3]", "value": 70, "unit": "%"}, {"measurement": "plant injury at 125 g/ha", "setting": "corn; [4]", "value": 20, "unit": "%"}, {"measurement": "plant injury at 500 g/ha", "setting": "corn; post-emergence, postemergence, 500 g ai/ha, visual rating, scale 0 (no effect) to 100 (complete control), read-out: Corn plant response rating", "value": 40, "unit": "%"}, {"measurement": "plant injury at 125 g/ha", "setting": "corn; [5]", "value": 0, "unit": "%"}, {"measurement": "Corn plant response rating (crop injury, 0 = no effect, 100 = complete kill) at 500 g/ha", "setting": "corn; [6]", "value": 10, "unit": "%"}]}
{"smiles": "CCn1nc(C(C)(C)C)cc1C(=O)Nc1cccc(OC(C)C)c1", "note": "[Compound 273]", "values": [{"measurement": "Crabgrass, Large plant response rating (0 to 100 scale)", "setting": "large crabgrass; [7]", "value": 80}, {"measurement": "Plant response rating, Crabgrass, Large", "setting": "large crabgrass; [8]", "value": 100}, {"measurement": "Crabgrass, Large plant response rating", "setting": "large crabgrass; [9]", "value": 30}, {"measurement": "Crabgrass, Large plant response rating", "setting": "large crabgrass; [10]", "value": 50}, {"measurement": "Corn plant response rating (0 to 100 scale)", "setting": "corn; [7]", "value": 0}, {"measurement": "Plant response rating, Corn", "setting": "corn; [8]", "value": 30}, {"measurement": "Corn plant response rating", "setting": "corn; [9]", "value": 10}, {"measurement": "Corn plant response rating", "setting": "corn; [10]", "value": 20}, {"measurement": "Velvetleaf plant response rating", "setting": "velvetleaf; [11]", "value": 90}, {"measurement": "Plant response rating, Velvetleaf", "setting": "velvetleaf; [12]", "value": 95}, {"measurement": "Velvetleaf plant response rating", "setting": "velvetleaf; [13]", "value": 75}, {"measurement": "Velvetleaf plant response rating", "setting": "velvetleaf; preemergence, 500 g ai/ha, visual injury, 0 to 100 scale (0 no effect, 100 complete control)", "value": 60}]}
{"smiles": "C#CCOc1cccc(NC(=O)c2cc(C(C)(C)C)nn2CC)c1", "note": "[Compound 411]", "values": [{"measurement": "Plant response rating (0 to 100 scale), Crabgrass, Large", "setting": "large crabgrass; [14]", "value": 80}, {"measurement": "Crabgrass, Large plant response rating", "setting": "large crabgrass; [15]", "value": 30}, {"measurement": "Crabgrass, Large plant response rating", "setting": "large crabgrass; [16]", "value": 0}, {"measurement": "Plant response rating (0 to 100 scale), Corn", "setting": "corn; [14]", "value": 0}, {"measurement": "Corn plant response rating", "setting": "corn; [15]", "value": 10}, {"measurement": "Corn plant response rating", "setting": "corn; [16]", "value": 10}]}
{"smiles": "CCOC(=O)c1ccc(F)c(NC(=O)C2CC(C(C)(C)C)=NN2CC)c1", "note": "(stereo not drawn) [Compound 267, ethyl 3-[[[3-(1,1-dimethylethyl)-1-ethyl-4,5-dihydro-1H-pyrazol-5-yl]carbonyl]amino]-4-fluorobenzoate]", "values": [{"measurement": "pest or weed control at 125 g/ha", "setting": "large crabgrass; [1]", "value": 20, "unit": "%"}, {"measurement": "pest or weed control at 500 g/ha", "setting": "large crabgrass; post-emergence, postemergence, 500 g ai/ha, scale 0 to 100, 0 is no effect, 100 is complete control, read-out: Crabgrass, Large plant response rating", "value": 40, "unit": "%"}, {"measurement": "pest or weed control at 125 g/ha", "setting": "large crabgrass; [2]", "value": 40, "unit": "%"}, {"measurement": "pest or weed control at 500 g/ha", "setting": "large crabgrass; [3]", "value": 100, "unit": "%"}, {"measurement": "plant injury at 125 g/ha", "setting": "corn; [4]", "value": 20, "unit": "%"}, {"measurement": "plant injury at 500 g/ha", "setting": "corn; post-emergence, postemergence, 500 g ai/ha, scale 0 to 100, 0 is no effect, 100 is complete control, read-out: Corn plant response rating", "value": 40, "unit": "%"}, {"measurement": "plant injury at 125 g/ha", "setting": "corn; [5]", "value": 0, "unit": "%"}, {"measurement": "Corn plant response rating (crop injury, 0 = no effect, 100 = complete kill) at 500 g/ha", "setting": "corn; [6]", "value": 20, "unit": "%"}, {"measurement": "pest or weed control at 500 g/ha", "setting": "velvetleaf; post-emergence, Postemergence, 500 g ai/ha, 0 to 100 scale, 0 no effect, 100 complete control, read-out: Velvetleaf plant response rating", "value": 30, "unit": "%"}, {"measurement": "pest or weed control at 2000 g/ha", "setting": "velvetleaf; [17]", "value": 35, "unit": "%"}, {"measurement": "pest or weed control at 2000 g/ha", "setting": "velvetleaf; pre-emergence, Preemergence, 2000 g ai/ha, visual rating, 0 to 100 scale (0 no effect, 100 complete control), read-out: Velvetleaf plant response rating", "value": 60, "unit": "%"}, {"measurement": "pest or weed control at 500 g/ha", "setting": "velvetleaf; pre-emergence, preemergence, 500 g ai/ha, visual injury, 0 to 100 scale (0 no effect, 100 complete control), read-out: Velvetleaf plant response rating", "value": 25, "unit": "%"}]}
{"smiles": "C=CCn1nc(C(C)(C)C)cc1C(=O)Nc1cccc(C(C)=NO)c1", "note": "[Compound 117]", "values": [{"measurement": "Plant response rating, Crabgrass, Large", "setting": "large crabgrass; [18]", "value": 100}, {"measurement": "Plant response rating, Crabgrass, Large", "setting": "large crabgrass; Postemergence, 500 g ai/ha, visual rating after 13 to 15 days, scale 0 (no effect) to 100 (complete control)", "value": 30}, {"measurement": "Crabgrass, Large plant response rating", "setting": "large crabgrass; [9]", "value": 10}, {"measurement": "Plant response rating, Crabgrass, Large", "setting": "large crabgrass; [19]", "value": 90}, {"measurement": "Plant response rating, Corn", "setting": "corn; [18]", "value": 30}, {"measurement": "Plant response rating, Corn", "setting": "corn; [19]", "value": 0}, {"measurement": "Velvetleaf plant response rating", "setting": "velvetleaf; [11]", "value": 50}, {"measurement": "Plant response rating, Velvetleaf", "setting": "velvetleaf; [12]", "value": 65}, {"measurement": "Velvetleaf plant response rating", "setting": "velvetleaf; Preemergence, 500 g ai/ha, visual rating, 0 to 100 scale (0 no effect, 100 complete control)", "value": 50}, {"measurement": "Velvetleaf plant response rating", "setting": "velvetleaf; [13]", "value": 65}]}
{"smiles": "CCn1nc(C(C)(C)C)cc1C(=O)Nc1cccc(C(=O)NCC(F)(F)F)c1", "note": "[Compound 43, 3-(1,1-dimethylethyl)-1-ethyl-N-[3-[[(2,2,2-trifluoroethyl)amino]carbonyl]-phenyl]-1H-pyrazole-5-carboxamide]", "values": [{"measurement": "pest or weed control at 125 g/ha", "setting": "large crabgrass; post-emergence, Postemergence, 125 g ai/ha, scale 0 (no effect) to 100 (complete control), read-out: Crabgrass, Large plant response rating", "value": 90, "unit": "%"}, {"measurement": "pest or weed control at 500 g/ha", "setting": "large crabgrass; post-emergence, Postemergence, 500 g ai/ha, visual rating after 13 to 15 days, scale 0 (no effect) to 100 (complete control), read-out: Plant response rating, Crabgrass, Large", "value": 90, "unit": "%"}, {"measurement": "pest or weed control at 500 g/ha", "setting": "large crabgrass; pre-emergence, Preemergence, 500 g ai/ha, scale 0 to 100, read-out: Crabgrass, Large plant response rating", "value": 100, "unit": "%"}, {"measurement": "plant injury at 125 g/ha", "setting": "corn; post-emergence, Postemergence, 125 g ai/ha, scale 0 (no effect) to 100 (complete control), read-out: Corn plant response rating", "value": 20, "unit": "%"}, {"measurement": "Corn plant response rating (crop injury, 0 = no effect, 100 = complete kill) at 500 g/ha", "setting": "corn; post-emergence, Postemergence, 500 g ai/ha, visual rating after 13 to 15 days, scale 0 (no effect) to 100 (complete control)", "value": 30, "unit": "%"}, {"measurement": "plant injury at 500 g/ha", "setting": "corn; pre-emergence, Preemergence, 500 g ai/ha, scale 0 to 100, read-out: Corn plant response rating", "value": 10, "unit": "%"}, {"measurement": "pest or weed control at 2000 g/ha", "setting": "velvetleaf; [17]", "value": 30, "unit": "%"}, {"measurement": "pest or weed control at 500 g/ha", "setting": "velvetleaf; pre-emergence, Preemergence, 500 g ai/ha, visual rating, 0 to 100 scale (0 no effect, 100 complete control), read-out: Velvetleaf plant response rating", "value": 5, "unit": "%"}, {"measurement": "pest or weed control at 2000 g/ha", "setting": "velvetleaf; pre-emergence, Preemergence, 2000 g ai/ha, 0 to 100 scale, 0 no effect, 100 complete control, read-out: Velvetleaf plant response rating", "value": 60, "unit": "%"}]}
